# Data reported in US4110345A, “2,2-Difluoro-1,3-benzodioxole-5-(α-alkyl)-acetic acids, and their use for the preparation of insecticides and acaricides” (American Cyanamid Company, priority 1977, dated 1978).
# Read-outs that look alike come from different tables or passages of the source.
# Legend:
# [1] = tested on: Third-Instar Tobacco Budworm Larvae; test: whole plant or invertebrate; type: in vivo; conditions: Heliothis virescens, in Gossypium hirsutum, foliar, 72 h, larval counts after 72 hours; for mortality at 30 ppm: read-out: Average % Mortality, 30 ppm; for mortality at 100 ppm: read-out: Average % Mortality, 100 ppm; for mortality at 300 ppm: read-out: Average % Mortality, 300 ppm; for mortality at 900 ppm: read-out: Average % Mortality, 900 ppm
# From the text: Residual insecticidal activity obtained with foliar treatment of cotton plants Young cotton plants with at least two expanded true leaves growing in 10 cm plastic pots were dipped, usually one leaf at a time in a 65% acetone-35% water solution of test compound with agitation for three seconds. The concentration of the compound in the solutions was 30 ppm, 100 ppm, 300 ppm or 900 ppm of active ingredient. After the leaves had dried, two leaves from each of two plants were excised and placed in petri dishes (90 mm × 100 mm) on moist filter paper (9 cm Whatman No. 1). Five third-instar tobacco budworm larvae were placed on each leaf and the petri dish capped. The infested dishes were than placed in a holding room with continuous light, ambient temperature of 80° F and 50% r.h. Larval counts were made after 72 hours. The remaining plants were placed under high intensity lights in the greenhouse adjusted to provide 14 hours of light per day. Leaf samples were assayed with third instar tobacco budworm larvae after 3, 7, 10 and 14 days exposure in the greenhouse. The data obtained are summarized in Table I. |Residual Insecticidal Activity of a Test Compound on Cotton Plants Using |Third-Instar Tobacco Budworm Larvae for Bioassay | * = Average % Mortality 20 TBW/Point
# [2] = tested on: adult Boophilus microplus ticks; test: whole plant or invertebrate; type: in vivo; conditions: Rhipicephalus microplus, in Bos taurus, topical, 48 h, read-out: Percent Adult Tick Mortality
# Experimental: The effectiveness of an acaricide prepared from the novel 2,2-difluoro-1,3-dioxole-5-(α-alkyl)acetic acids of the present invention for the control of adult Boophilus microplus ticks is determined in the following test wherein the test compound is dissolved in 10% acetone-90% water mixture in sufficient amounts to give solutions containing […] ppm of test compound.
# Adult engorged female ticks are dipped in the test solutions for 3 seconds and placed in individual containers and held for 48 hours in a room maintained at 80° F and 50% r.h. At the end of the holding period the ticks are examined and egg deposits counted. […]
# Percent Adult Tick Mortality
smiles,measurement,setting,value
CC(C)C(C(=O)OC(C#N)c1cccc(Oc2ccccc2)c1)c1ccc2c(c1)OC(F)(F)O2 (stereo not shown) [drawing 6],mortality at 30 ppm,[1]; 0 days residual,45%
same,mortality at 30 ppm,[1]; 3 days residual,0%
same,mortality at 30 ppm,[1]; 7 days residual,10%
same,mortality at 30 ppm,[1]; 10 days residual,10%
same,mortality at 30 ppm,[1]; 14 days residual,10%
same,mortality at 100 ppm,[1]; 0 days residual,90%
same,mortality at 100 ppm,[1]; 3 days residual,55%
same,mortality at 100 ppm,[1]; 7 days residual,55%
same,mortality at 100 ppm,[1]; 10 days residual,65%
same,mortality at 100 ppm,[1]; 14 days residual,10%
same,mortality at 300 ppm,[1]; 0 days residual,95%
same,mortality at 300 ppm,[1]; 3 days residual,90%
same,mortality at 300 ppm,[1]; 7 days residual,100%
same,mortality at 300 ppm,[1]; 10 days residual,90%
same,mortality at 300 ppm,[1]; 14 days residual,95%
same,mortality at 900 ppm,[1]; 0 days residual,100%
same,mortality at 900 ppm,[1]; 3 days residual,100%
same,mortality at 900 ppm,[1]; 7 days residual,100%
same,mortality at 900 ppm,[1]; 10 days residual,100%
same,mortality at 900 ppm,[1]; 14 days residual,100%
CC(C)C(C(=O)OC(C#N)c1cccc(Oc2ccccc2)c1)c1ccc2c(c1)OC(F)(F)O2 (stereo not shown) [drawing 7],mortality at 7.3 ppm,[2],80.2%
same,mortality at 15.6 ppm,[2],85.8%
same,mortality at 31.2 ppm,[2],88.4%
same,mortality at 62.5 ppm,[2],99.7%
same,mortality at 125 ppm,[2],98.3%
